# Source: patent publication US6020328A, “20-keto-11β-arylsteroids and their derivatives having agonist or antagonist hormonal properties” (Research Triangle Institute, priority 1998, dated 2000)
# Several values for one entry are separate records, joined by “and”; a condition that tells them apart may be missing. Identical values can stand only once.
# Assays:
# Human T-47D breast cells [1] = assay: T-47D cell proliferation, agonist format; assay type: cell-based; details: T47D, 0.01 to 10 nM, maximum at any dose, read-out: Cell Proliferation Agonist maximum % Stim.
# Protocol: (§1) Human T-47D breast cells grown in nutrient media were incubated with the standard progestin R5020 alone or with R5020 plus test compound and then assessed by standard procedures for proliferation using incorporation of [^3 H]-thymidine as the measurement. […] The maximum % inhibition (a measure of the efficacy of the compounds) is also given. In the agonist format of this assay the compounds were tested at concentrations ranging from 0.01 to 10 nM and the maximum % stimulation at any dose is listed in Table 2. […] However, the presence of a very polar hydroxyl group in the 17α-position greatly diminishes antiprogestational activity and this holds even when the OH is separated from the 17-carbon atom by a methylene group.
# Human T-47D breast cells [2] = assay: T-47D cell proliferation, antagonist format (inhibition of 0.15 nM R5020-mediated proliferation); assay type: cell-based; details: T47D; for EC50: inhibition of 0.15 nM R5020-mediated proliferation, N.D. not detected; for Emax: maximum % inhibition, 0.15 nM R5020, read-out: Cell Proliferation Antagonist maximum % Inhib.
# Protocol: as §1
# rabbits [3] = assay: McGinty test (agonist, test compound alone); assay type: in vivo, rabbit
# Protocol: (§2) Progestational activity and antiprogestational activity were determined in rabbits by means of the McGinty test (test compound alone, procedure of McGinty et al., Endocrinology, 24:829-832 (1939)) or anti-McGinty test (test compound plus progesterone, procedure of Tamara et al., Jpn. J. Fertil. Steril. 24:48-81 (1979)). Results were scored according to McPhail (McPhail, J. Physiol., 83:146 (1934)).
# progestin receptor (hPR) = assay: progestin receptor binding; details: cytosol from human T-47D breast cells; [3H]-R5020; read-out: Receptor Binding Affinity hPR IC50
# From the text: However, the receptors were of human origin and a different radioligand was used. Thus, for progestin receptor binding the receptor was obtained in cytosol from human T-47D breast cells and [^3 H]-R5020 was used as the radioligand. Data are expressed as IC50 values, i.e., the concentration of compound that inhibits the radioligand binding by 50%.
# rabbits [4] = assay: anti-McGinty test (antagonist, test compound plus progesterone); assay type: in vivo, rabbit
# Protocol: as §2
Structure (SMILES),Emax (Human T-47D breast cells [1]) [%],EC50 (Human T-47D breast cells [2]) [nM],Emax (Human T-47D breast cells [2]) [%],"McPhail Index, McGinty Assay (Agonist) (rabbits [3]; dose 0.3 micrograms)","McPhail Index, McGinty Assay (Agonist) (rabbits [3]; dose 3 micrograms)","McPhail Index, McGinty Assay (Agonist) (rabbits [3]; dose 30 micrograms)",IC50 (progestin receptor (hPR)) [nM],"McPhail Index, McGinty Assay (Antagonist) (rabbits [4]; rabbit, in vivo)","McPhail Index, McGinty Assay (Antagonist) (rabbits [4]; dose 0.3 micrograms, plus progesterone)","McPhail Index, McGinty Assay (Antagonist) (rabbits [4]; dose 3 micrograms, plus progesterone)","McPhail Index, McGinty Assay (Antagonist) (rabbits [4]; dose 30 micrograms, plus progesterone)","progestational activity, McGinty test (rabbits [3]; in words)","antiprogestational activity, anti-McGinty test (rabbits [4]; in words)","McPhail Index, McGinty Assay (Agonist), progesterone (rabbits [3]; progesterone control, printed under first dose column, own dose not stated)","McPhail Index, McGinty Assay (Antagonist), progesterone (Standard) (rabbits [4]; progesterone standard, printed under first dose column, own dose not stated)"
CC(=O)OC[C@]1(C(C)=O)CC[C@H]2[C@@H]3CCC4=CC(=O)CCC4=C3[C@@H](c3ccc(N(C)C)cc3)C[C@@]21C [I 4-Me2 N H O H CH2 --O--CO--CH3 H],20,8.9,92,0 +/- 0,0.6 +/- 0.2,1.0 +/- 0.1,10.6,3.4 +/- 0.1 and 2.6 +/- 0.2 and 2.0 +/- 0.2,–,–,–,–,–,–,–
"CCC(=O)O[C@]1(C(C)=O)CC[C@H]2[C@@H]3CCC4=CC(=O)CCC4=C3[C@@H](c3ccc(N4CCCCC4)cc3)C[C@@]21C [11β-(4-(N-piperidino)phenyl)-17α-propionyloxy-19-norpregna-4,9-diene-3,20-dione]",-16,1,111,0 +/- 0,0 +/- 0,0 +/- 0,2,–,–,–,–,–,–,–,–
"CCC(=O)O[C@]1(C(C)=O)CC[C@H]2[C@@H]3CCC4=CC(=O)CCC4=C3[C@@H](c3ccc4c(ccn4C)c3)C[C@@]21C [11β-(1-Methylindol-5-yl)-17α-propionyloxy-19-norpregna-4,9-diene-3,20-dione]",7,2.4,107,0 +/- 0,0 +/- 0,0 +/- 0,2.3,–,–,–,–,–,–,–,–
"CC(=O)[C@@]1(OC(=O)Cc2ccccc2)CC[C@H]2[C@@H]3CCC4=CC(=O)CCC4=C3[C@@H](c3ccc(N(C)C)cc3)C[C@@]21C [I 4-Me2 N H O H O--CO--CH2 C6 H5 H, 11β-[4-(N,N-Dimethylamino)phenyl]-17α-phenylacetoxy-19-norpregna-4,9-diene-3,20-dione]",16,1.9,99,–,–,–,7.9,–,–,–,–,–,–,–,–
"COC(=O)[C@]1(C(C)=O)CC[C@H]2[C@@H]3CCC4=CC(=O)CCC4=C3[C@@H](c3ccc(N(C)C)cc3)C[C@@]21C [I 4-Me2 N H O H COOCH3 H, 17α-carbomethoxy-11β-(4-(N,N-dimethylamino)phenyl)-19-norpregna-4,9-diene-3,20-dione]",24,0.4,92,0 +/- 0,0 +/- 0,0.07 +/- 0.07,0.7,–,–,–,–,–,–,–,–
"CCC(=O)O[C@]1(C(C)=O)CC[C@H]2[C@@H]3CCC4=CC(=O)CCC4=C3[C@@H](c3ccc(N(C)C)cc3)C[C@@]21C [I 4-Me2 N H O H --O--CO--C2 H5 H, 11β-[4-(N,N-dimethylamino)phenyl]-17α-propionyloxy-19-norpregna-4,9-diene-3,10-dione]",4,0.4,110,0 +/- 0,0 +/- 0,0 +/- 0,1.3,–,–,–,–,–,–,–,–
"CCC(=O)O[C@]1(C(C)=O)CC[C@H]2[C@@H]3CCC4=CC(=O)CCC4=C3[C@@H](c3ccc(N4CCCC4)cc3)C[C@@]21C [17α-Propionyloxy-11β-[4-(N-pyrrolidino)phenyl-19-norpregna-4,9-diene-3-20-dione]",-1,0.9,107,0 +/- 0,0 +/- 0,0.1 +/- 0.1,4.8,–,–,–,–,–,–,–,–
CC(=O)[C@@]1(O)CC[C@H]2[C@@H]3CCC4=CC(=O)CCC4=C3[C@@H](c3ccc(N(C)C)cc3)C[C@@]21C [I 4-Me2 N H O H --OH H],4,–,29,0 +/- 0,0 +/- 0,0 +/- 0,26,–,2.8 +/- 0,2.4 +/- 0.4,2.1 +/- 0.4,–,–,–,–
"COc1ccc([C@H]2C[C@@]3(C)[C@@H](CC[C@]3(OC(C)=O)C(C)=O)[C@@H]3CCC4=CC(=O)CCC4=C32)cc1 [I 4-CH3 O H O H --O--CO--CH3 H, 17α-Acetoxy-11β-(4-methoxyphenyl)-19-norpregna-4,9-diene-3,20-dione]",2,0.3,119,1.5 +/- 0.2,1.5 +/- 0.6,1.5 +/- 0.7,0.8,–,–,–,–,both agonist and antagonist properties,both agonist and antagonist properties,–,–
"CC(=O)O[C@]1(C(C)=O)CC[C@H]2[C@@H]3CCC4=CC(=O)CCC4=C3[C@@H](c3ccc4c(c3)CCN4C)C[C@@]21C [17α-Acetoxy-11β-(1-methyl-2,3-dihydroindol-5-yl)-19-norpregna-4,9-diene-3,20-dione]",6,1.5,103,0.6 +/- 0.1,0.2 +/- 0.1,0.2 +/- 0.1,2,–,–,–,–,–,–,–,–
"CC(=O)[C@H]1CC[C@H]2[C@@H]3CCC4=CC(=O)CC[C@]4(C)[C@H]3CC[C@]12C [Progesterone, reference compound]",–,–,–,–,–,–,3.3,–,–,–,–,–,–,2.45 +/- 0.14,2.45 +/- 0.14
"C#C[C@]1(C(C)=O)CC[C@H]2[C@@H]3CCC4=CC(=O)CCC4=C3[C@@H](c3ccc(N(C)C)cc3)C[C@@]21C [I 4-Me2 N H O H --CCH H, 11β-(4-(N,N-Dimethylamino)phenyl)-17α-ethynyl-19-norpregna-4,9-diene-3,20-dione]",12,0.4,101,0.1 +/- 0.1,0.2 +/- 0.2,0.2 +/- 0.2,2.5,–,–,–,–,–,–,–,–
"CC[C@]1(C(C)=O)CC[C@H]2[C@@H]3CCC4=CC(=O)CCC4=C3[C@@H](c3ccc(N(C)C)cc3)C[C@@]21C [I 4-Me2 N H O H C2 H5 H, 11β-[4-(N,N-dimethylamino)phenyl]-17α-ethyl-19-norpregna-4,9-diene-3,20-dione]",8,0.3,110,0.2 +/- 0.1,0.3 +/- 0.2,0.3 +/- 0.26,0.6,–,–,–,–,–,–,–,–
"COC[C@]1(C(C)=O)CC[C@H]2[C@@H]3CCC4=CC(=O)CCC4=C3[C@@H](c3ccc(N(C)C)cc3)C[C@@]21C [I 4-Me2 N H O H --CH2 OCH3 H, 11β-(4-(N,N-dimethylamino)phenyl)-17α-methoxymethyl-19-norpregna-4,9-diene-3,20-dione]",12,0.3,106,1.3 +/- 0.5,1.8 +/- 0.6,1.3 +/- 0.8,3.2,3.2 +/- 0.1 and 1.7 +/- 0.8 and 1.7 +/- 0.3,–,–,–,–,–,–,–
"CC(=O)[C@@]1(CO)CC[C@H]2[C@@H]3CCC4=CC(=O)CCC4=C3[C@@H](c3ccc(N(C)C)cc3)C[C@@]21C [I 4-Me2 N H O H --CH2 --OH H, 11β-(4-(N,N-dimethylamino)phenyl)-17α-hydroxymethyl-19-norpregna-4,9-diene-3,20-dione]",11,–,23,0 +/- 0,0 +/- 0,0 +/- 0,43.6,2.9 +/- 0.5 and 2.8 +/- 0.2 and 2.7 +/- 0.2,–,–,–,–,–,–,–
"CC(=O)[C@@]1(OC(=O)c2ccccc2)CC[C@H]2[C@@H]3CCC4=CC(=O)CCC4=C3[C@@H](c3ccc(N(C)C)cc3)C[C@@]21C [I 4-Me2 N H O H --O--CO--C6 H5 H, 11β-[4-(N,N-Dimethylamino)phenyl]-17α-benzoyloxy-19-norpregna-4,9-diene-3,20-dione]",18,6.4,69,0 +/- 0,0 +/- 0,0 +/- 0,24,–,–,–,–,–,–,–,–
"CC(=O)O[C@]1(C(C)=O)CC[C@H]2[C@@H]3CCC4=CC(=O)CCC4=C3[C@@H](c3ccc(N(C)C)nc3)C[C@@]21C [17α-Acetoxy-11β-[2-(N,N-dimethylamino)pyrid-5-yl]-19-norpregna-4,9-diene-3,20-dione]",5,2.9,92,0 +/- 0,0 +/- 0,0 +/- 0,11,–,–,–,–,–,–,–,–
